In US6040300A, “Method of preventing colon cancer with vitamin D3 analogues” (Arch Development Corporation, priority 1995, dated 2000):
“Also recorded” adds a separate entry of the source.

What was measured:
[1] = Body weight / growth and tolerability of the animals; assay type: in vivo; conditions: for Final Wt.: mean ± S.E.M.
Source text: (§1) Male albino Fisher-344 rats, initially weighing ~90-100 g, were used in these studies. On arrival, the animals were quarantined for 1 wk and then randomly divided into the following six test groups: groups 1 and 2, standard vitamin D-sufficient diet; groups 3 and 4, standard diet supplemented with RO24-5531 (2.50 nmol/kg of feed); and groups 5 and 6, standard vitamin D-sufficient diet. […] Next, the rats in groups 2,4 and 6 were given subcutaneous injections of azoxymethane (AOM, Sigma Chemical Co., St. Louis, Mo.), 15 mg/kg body wt once a wk for 2 wks, while the rats in groups 1,3 and 5 received AOM-vehicle (saline).
(§2) Groups 1 and 2 were then maintained on the standard diet for an additional […]. Groups 3 and 4 were maintained on the RO24-5531 supplemented diets for the initial five wks and then switched to the standard diet without RO24-5531 for an additional 29 wks (initiation arm), whereas groups 5 and 6 were maintained on the standard diet without supplemental RO24-5531 for the initial five wks and then switched to the RO24-5531 supplemented diet for an additional 29 wks (post-initiation arm).
(§3) All rats were sacrificed in the non-fasting state after 34 wks on these protocols between 9 a.m. and 11 a.m. and sera obtained for measurement of calcium, phosphate, 25(OH)D3 and 1α,25(OH)2 D3 levels. The rats' colons were removed, opened, washed with normal saline and examined macroscopically for the presence of tumors. Resected tumors were weighed, and were fixed in 10% buffered formalin for microscopic examination. After formalin fixation, tissue specimens were paraffin-embedded, sectioned, and stained with hematoxylin and eosin as described previously (Sitrin et al., 1991), for light microscopic examination. All specimens were evaluated by a pathologist who was unaware of the dietary or AOM treatment history. Macroscopic and microscopic lesions were classified as either benign (adenoma) or malignant (adenocarcinoma).
(§4) Results are expressed as means ±SE of n determinations. Data were analyzed by Fisher's exact test (two-tailed) or analysis of variance (ANOVA) as appropriate (Snedecor and Cochran, Statistical Methods, 1980). Values of p <0.05 were considered statistically significant.

HL-60 cells = conditions: cited from earlier work
[2] = breast tumor study; cited from earlier work
[3] = Serum phosphorus (standard colorimetric method); assay type: in vivo, Male albino Fisher-344 rats; conditions: for Serum Levels P: mean ± S.E.M.
Source text: as §1, §2, §3
(§5) Serum calcium and phosphorus were measured by standard colorimetric methods (Kessler and Wolfman, Clin. Chem. 10:686-703, 1964). Serum 25(OH)D3 levels were measured by radioimmunoassay, using a kit and procedure supplied by Incstar (Stillwater, Minn.). Serum 1α,25(OH)2 D3 levels were assayed by a non-equilibrium competitive protein-binding assay based on a calf thymus receptor, using a kit and procedure supplied by Incstar, as previously described (Sitrin et al., 1991).
as §4

[4] = tested on: AOM-induced colonic tumors; assay: AOM-induced colonic tumor formation with dietary RO24-5531; assay type: in vivo, Male albino Fisher-344 rats; conditions: for inhibition of development of colonic tumors / colon cancer incidence: AOM model, dietary supplementation
Method: FIG. 2. Study Protocol: Rats (12 each, in groups 1,3 and 5; 20 each, in groups 2,4 and 6) were fed either standard diet without RO24-5531 (open bars), or RO24-5531 supplemented diets (shaded bars) for the initial five weeks of the study. During this period rats were given two weekly subcutaneous injections of either AOM (15 mg/kg body wt/wk) (groups 2,4 or 6), or AOM-vehicle (saline) (groups 1,3, or 5) at the end of weeks 2 and 3 (arrows). At the end of five weeks, rats in groups 1-2 were continued on the standard diet without RO24-5531; groups 3-4 were switched to standard diet without RO24-5531; and groups 5-6 were switched to the RO24-5531 supplemented diet for another 29 weeks.
RO24-5531 was provided by Hoffmann LaRoche Inc. (Nutley, NJ; EP 580968). All diets were obtained from ICN Biochemicals (Cleveland, Ohio). Prior to pelleting, RO24-5531 or vehicle (0.1% ethanol) were mixed with the standard vitamin D-sufficient diet by ICN Biochemicals. This diet has been described in detail (Sitrin et al., 1991) and contained a normal content of calcium and phosphorus, 0.87% and 0.60%, respectively, with 2.2 IU of vitamin D3 /g of feed.
as §1, §2, §3, §4

c-myc mRNA = conditions: HL-60 cells; cited from earlier work
[5] = tested on: NMU-induced breast cancers; conditions: cited from earlier work
[6] = Serum 25(OH)D3 levels (radioimmunoassay); assay type: in vivo, Male albino Fisher-344 rats; conditions: for Serum Levels 25(OH)D3: mean ± S.E.M., n=6
Source text: as §1, §2, §3, §5, §4

[7] = group 3: RO24-5531/SD, no AOM, 12 animals
[8] = group 4: RO24-5531/SD (initiation arm), AOM
[9] = group 4: RO24-5531/SD (initiation arm), AOM, 20 animals
[10] = group 4: RO24-5531/SD (initiation arm), AOM, 20 animals, p < 0.05 vs group 2
[11] = group 5: SD/RO24-5531, no AOM, 12 animals
[12] = group 6: SD/RO24-5531 (post-initiation arm), AOM
[13] = group 6: SD/RO24-5531 (post-initiation arm), AOM, 20 animals

C=C1/C(=C\C=C2/CCC[C@]3(C)C([C@H](C)CC#CC(O)(C(F)(F)F)C(F)(F)F)=CC[C@@H]23)C[C@@H](O)C[C@@H]1O [RO24-5531, 26,26,26,27,27,27-hexafluoro-1α,25-dihydroxy-16-ene-23-yne-cholecalciferol]
influence on growth of the animals ([1]; RO24-5531 supplemental dietary regimens, all groups): neither the RO24-5531 supplemental dietary regimens, nor the administration of carcinogen influenced the growth of the animals
tolerability ([1]; dietary supplementation): well-tolerated by the animals
Final Wt. ([1]; group 3: RO24-5531 2.50 nmol/kg of feed for initial five wks, then SD, no AOM): 470 ± 20 g
Final Wt. ([1]; group 4: RO24-5531/SD (initiation arm), AOM treated): 465 ± 16 g
Final Wt. ([1]; group 5: SD/RO24-5531 (supplement for last 29 wks), no AOM): 511 ± 30 g
Final Wt. ([1]; group 6: SD/RO24-5531 (post-initiation arm), AOM treated): 499 ± 28 g
induction of differentiation (HL-60 cells): induction of differentiation
inhibition of proliferation (HL-60 cells): inhibit proliferation of HL-60 cells; also recorded: inhibition of proliferation
serum Ca2+ levels [2]: without causing elevated levels of serum Ca^2+
Serum Levels P ([3]; group 3: RO24-5531/SD, no AOM, n=10): 10.2 ± 0.7 mg/dL
Serum Levels P ([3]; group 4: RO24-5531/SD (initiation arm), AOM, n=5): 9.9 ± 0.8 mg/dL
Serum Levels P ([3]; group 5: SD/RO24-5531, no AOM, n=6): 9.2 ± 0.3 mg/dL
Serum Levels P ([3]; group 6: SD/RO24-5531 (post-initiation arm), AOM, n=11): 9.0 ± 0.8 mg/dL
effect on serum levels of phosphorus ([3]; groups 4 and 6): significantly altered the serum levels of calcium, phosphorus or 25(OH)D3
inhibition of development of colonic tumors / colon cancer incidence ([4]; listed as 1α, 25-Dihydroxy-16-ene-23-yne-26, 27-hexafluorocholecalciferol): reduced the incidence of colon cancer in rats
inhibition of development of colonic tumors / colon cancer incidence ([4]; listed as 1α,25-dihydroxy-16-ene-23-yne-26,27-hexafluorocholecalciferol): can inhibit the development of colonic tumors in mammals; also recorded: can inhibit the development of colonic tumors in the AOM model
development of tumors ([4]; AOM-vehicle, RO24-5531 supplemented diets (groups 3, 5)): None of the control animals given injections of the AOM-vehicle and fed either the standard or RO24-5531 supplemented diets developed tumors
Tumors/Tumor Bearing rat ([4]; group 3: RO24-5531/SD, no AOM): 0
No. of Tumor-Bearing Rats [4, 7]: 0
No. of Tumors, Benign No. [4, 7]: 0
No. of Tumors, Malignant No. [4, 7]: 0
No. of Tumors, Total No. [4, 7]: 0
incidence of colonic tumors vs group 2 ([4]; group 4, initiation arm): significant decreases in the incidence of colonic tumors
tumor type ([4]; group 4, initiation arm): all of the colonic tumors in group 4 (initiation arm) were found to be benign, i.e., adenomas
Tumor Wt. [4, 8]: 102 ± 28 mg
Tumors/Tumor Bearing rat [4, 8]: 1.0
No. of Tumors, Benign No. [4, 9]: 3
No. of Tumors, Malignant No. [4, 9]: 0
No. of Tumor-Bearing Rats [4, 10]: 3
No. of Tumors, Total No. [4, 10]: 3
Tumor-Bearing Rats (% of Incidence) ([4]; group 4: RO24-5531/SD (initiation arm), AOM, p < 0.05 vs group 2 (50%)): 15%
Tumors/Tumor Bearing rat ([4]; group 5: SD/RO24-5531, no AOM): 0
No. of Tumor-Bearing Rats [4, 11]: 0
No. of Tumors, Benign No. [4, 11]: 0
No. of Tumors, Malignant No. [4, 11]: 0
No. of Tumors, Total No. [4, 11]: 0
tumor type ([4]; group 6, post-initiation arm): all of the colonic tumors were found to be adenomas
number of tumors vs AOM alone animals ([4]; group 6, post-initiation arm, p >0.05): a trend for a decrease in the number of tumors; also recorded: did not reach statistical significance
Tumor Wt. [4, 12]: 109 mg
Tumors/Tumor Bearing rat [4, 12]: 1.0
No. of Tumor-Bearing Rats [4, 13]: 6
No. of Tumors, Benign No. [4, 13]: 6
No. of Tumors, Malignant No. [4, 13]: 0
No. of Tumors, Total No. [4, 13]: 6
Tumor-Bearing Rats (% of Incidence) ([4]; group 6: SD/RO24-5531 (post-initiation arm), AOM, group 2: 50%): 30%
AOM-induced adenocarcinomas ([4]; post-initiation arm, like its initiation arm counterpart): complete absence of AOM-induced adenocarcinomas
c-myc mRNA expression (c-myc mRNA): decrease c-myc mRNA expression in HL-60 cells
protection against NMU-induced breast cancers ([5]; fed after administration of carcinogen): protected against the development of NMU-induced breast cancers
breast tumor incidence ([5]; in vivo): lessened tumor incidence
breast tumor latency ([5]; in vivo): extended breast tumor latency
breast tumor number ([5]; in vivo): lessened tumor incidence as well as tumor number
Serum Levels 25(OH)D3 ([6]; group 3: RO24-5531/SD, no AOM): 31 ± 2 ng/mL
Serum Levels 25(OH)D3 [6, 8]: 29 ± 2 ng/mL
Serum Levels 25(OH)D3 ([6]; group 5: SD/RO24-5531, no AOM): 33 ± 4 ng/mL
Serum Levels 25(OH)D3 [6, 12]: 36 ± 5 ng/mL
effect on serum levels of 25(OH)D3 ([6]; groups 4 and 6): significantly altered the serum levels of calcium, phosphorus or 25(OH)D3
